PubChem BioAssay (NCI)
Several values for one entry are separate records, joined by “and”; a condition that tells them apart may be missing. Equal values may be shown once.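 How tested: cells in 96-well plates exposed to compound for 48 hours at five concentrations. GI50 = concentration required for 50% inhibition of growth. At the TGI there is no net growth.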

How the values were obtained:
Assay in all cases: DTP human tumour cell line panel, 48 h
[1] = test system: BT-549 breast
[2] = test system: HCT-15 colon
[3] = test system: MOLT-4 leukemia
[4] = test system: PC-3 prostate
[5] = test system: SF-295 CNS
[6] = test system: SK-MEL-2 melanoma
[7] = test system: SN12C renal
[8] = test system: TK-10 renal

Row | SMILES | GI50 [1] [µM] | TGI [1] [µM] | GI50 [2] [µM] | TGI [2] | GI50 [3] [µM] | TGI [3] | GI50 [4] [µM] | TGI [4] | GI50 [5] [µM] | TGI [5] | GI50 [6] [µM] | TGI [6] [µM] | GI50 [7] [µM] | TGI [7] | GI50 [8] [µM] | TGI [8]
1 | C=CCN1C(=O)[C@]2(SC1=S)[C@H](c1cccc(Cl)c1)CN(C)[C@]21C(=O)NC2C=CC(Cl)=C[C@H]21 (some centres undefined) | 2.06 | 8.49 | 2.89 | 13.1 µM | 2.07 | 6.82 µM | 2.19 | 13 µM | 7.29 | 21.4 µM | 8.13 | 24.2 | 1.81 | 3.77 µM | 13 | 26.9 µM
2 | Cc1cc(OCc2nn(CN3CCN(C)CC3)c(=S)n2/N=C/c2ccc(F)cc2)ccc1Cl | 17.6 | 32.7 | 15.2 | 29.3 µM | 14.7 | 34.9 µM | 16.2 | 31.6 µM | 17.9 | 36.6 µM | 18.5 | 37.6 | 16.9 | 31 µM | 14.6 | 33.7 µM
3 | COc1cc(/C=C/c2ccnc3ccccc23)cc(OC)c1OC | – | – | 1.92 | > 100 µM and 70.1 µM | 2.47 | 13.4 µM and 26.2 µM | 3.81 | 94.1 µM and > 100 µM | 3.12 | > 100 µM and 53 µM | – | > 100 | 4.4 | 31 µM and > 100 µM | – | 30.6 µM and > 100 µM
4 | CC(=O)c1ccc(Oc2c3ccccc3nc3occc23)cc1 | 47.3 | > 100 | 2.39 | 72.4 µM | 5.71 | > 100 µM | 9.77 | > 100 µM | 2.02 | 12.5 µM | > 100 | > 100 | – | – | 11.4 | > 100 µM
5 | O=C(COc1cccc(/C=C2\Oc3ccc4ccccc4c3C2=O)c1)c1ccc([N+](=O)[O-])cc1 | 17.3 | 37.6 | 12.3 | 30.9 µM | 13.3 | 38.6 µM | – | – | 57.4 | > 100 µM | > 100 | > 100 | 13.9 | 32.5 µM | 37.3 | > 100 µM
6 | CCOC(=O)c1cc(C(=O)c2cc(OC)c(OC)c(OC)c2)n2ccc(-c3cc[n+](CC(=O)c4cc(OC)c(OC)c(OC)c4)cc3)cc12 | 1.98 | 4.49 | 2.62 | 7.93 µM | – | – | 2.61 | 8.12 µM | – | – | 2.6 | 7.12 | 1.87 | 3.87 µM | 1.79 | 3.5 µM
7 | O=C(CCl)Nc1ccc(Cc2ccc(NC(=O)CCl)cc2)cc1 | 1.4 | 4.69 | – | – | 1.44 | 6.32 µM | 2.13 | 6.42 µM | 3.55 | 19.7 µM | 2.46 | 7.54 | 2.38 | > 100 µM | 4.17 | > 75 µM
8 | COc1cccc(-c2nn(-c3ccccc3)cc2-c2ccnc(NCCCNS(=O)(=O)c3ccc(C(F)(F)F)cc3)c2)c1 | 4.41 | > 100 | 4.08 | > 100 µM | – | – | 3.36 | > 100 µM | 3.17 | > 100 µM | 2.84 | 12.4 | 8.4 | > 100 µM | 9.25 | > 100 µM
9 | c1ccc2c(c1)[nH]c1c3ccccc3sc21 | – | – | – | > 100 µM | – | > 100 µM | – | > 100 µM | – | > 100 µM | – | > 100 | – | > 100 µM | – | > 100 µM
